Measurements published in ChEMBL document CHEMBL1126151, “A study on the contribution of the 1-phenyl substituent to the molecular electrostatic potentials of some benzazepines in relation to selective dopamine D-1 receptor activity” (J Med Chem, 1992).

Target: Adenylate cyclase
Test: Compound was tested for the adenylate cyclase stimulation
Type: protein assay

| Structure (SMILES) | EC50 [M] |
| --- | --- |
| Oc1cc2c(cc1O)[C@@H](C1CCCCC1)CNCC2 | > 0.00001 |
| Oc1cc2c(cc1O)CCNCC2 | 5.2e-06 |
